Results: ChEMBL document CHEMBL4706628, “Ligand-based optimization to identify novel 2-aminobenzo[d]thiazole derivatives as potent sEH inhibitors with anti-inflammatory effects” (Eur J Med Chem, 2021)
Values after ≈ are worked out from the molar mass of the structure shown.

Assays:
[1] = Solubility of compound in pH 7.4 PBS buffer measured after 2 hrs by turbidimetric assay; format: physicochemical
[2] = molecular target: T1, Bifunctional epoxide hydrolase 2 (Homo sapiens, UniProt P34913); assay: Inhibition of recombinant human sEH using PHOME as substrate measured after 15 mins by fluorescence assay
T1 sequence (P34913 whole entry): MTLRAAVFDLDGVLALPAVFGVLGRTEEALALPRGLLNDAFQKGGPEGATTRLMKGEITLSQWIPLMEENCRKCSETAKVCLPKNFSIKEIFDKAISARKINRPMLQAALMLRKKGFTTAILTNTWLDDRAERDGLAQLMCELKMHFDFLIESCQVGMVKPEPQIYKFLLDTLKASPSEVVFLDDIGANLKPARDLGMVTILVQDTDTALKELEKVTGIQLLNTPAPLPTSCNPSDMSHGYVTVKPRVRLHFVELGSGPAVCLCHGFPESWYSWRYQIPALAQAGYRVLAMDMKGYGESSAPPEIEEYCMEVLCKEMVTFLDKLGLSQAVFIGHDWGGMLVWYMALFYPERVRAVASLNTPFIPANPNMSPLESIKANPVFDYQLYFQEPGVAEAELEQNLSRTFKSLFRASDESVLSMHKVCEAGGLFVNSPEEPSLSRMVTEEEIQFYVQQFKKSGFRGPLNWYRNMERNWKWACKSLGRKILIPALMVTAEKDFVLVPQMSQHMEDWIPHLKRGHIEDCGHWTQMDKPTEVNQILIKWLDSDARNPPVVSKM

[3] = molecular target: T2, Bifunctional epoxide hydrolase 2 (Homo sapiens) (UniProt P34913); assay: Potency index, ratio of t-AUCB IC50 to test compound IC50 for recombinant human sEH
T2 sequence (whole entry): T1 sequence (P34913 whole entry)

[4] = molecular target: T2, Bifunctional epoxide hydrolase 2 (Homo sapiens); assay: Inhibition of recombinant human sEH at 100 nM using PHOME as substrate measured after 15 mins by fluorescence assay relative to control
Mus musculus [5] = assay: Antiinflammatory activity in BALB/c mouse model of carrageenan-induced paw edema assessed as paw thickness at 100 mg/kg, ip pretreated for 1 hr followed by carrageenan challenge and measured after 1 hr by caliper method (reference value: 3.51 +/- 0.19 millimeter); format: functional; conditions: time 2 hrs
in vitro [6] = conditions: Sprague-Dawley, rat, liver microsomes
Description: Half life in Sprague-Dawley rat liver microsomes at 10 uM measured up to 60 mins in presence of NADPH regenerating system by HPLC analysis

Mus musculus [7] = assay: Antiinflammatory activity in BALB/c mouse model of carrageenan-induced paw edema assessed as paw edema at 100 mg/kg, ip pretreated for 1 hr followed by carrageenan challenge and measured after 4 hrs by caliper method relative to control; format: functional; conditions: time 5 hrs
in vitro [8] = conditions: Sprague-Dawley, rat, liver microsomes; remark: listed apart in the source
in vitro [9] = conditions: Sprague-Dawley, rat, liver microsomes; remark: listed apart in the source
Description: Stability in Sprague-Dawley rat liver microsomes assessed as parent compound remaining at 10 uM measured after 60 mins in presence of NADPH regenerating system by HPLC analysis

Mus musculus [10] = assay: Antiinflammatory activity in BALB/c mouse model of carrageenan-induced paw edema assessed as paw edema at 100 mg/kg, ip pretreated for 1 hr followed by carrageenan challenge and measured after 3 hrs by caliper method relative to control; format: functional; conditions: time 4 hrs
in vitro [11] = conditions: Sprague-Dawley, rat, liver microsomes; remark: listed apart in the source
Mus musculus [12] = assay: Antiinflammatory activity in BALB/c mouse model of carrageenan-induced paw edema assessed as paw edema at 100 mg/kg, ip pretreated for 1 hr followed by carrageenan challenge and measured after 2 hrs by caliper method relative to control; format: functional; conditions: time 3 hrs
HepG2 = assay: Cytotoxicity against human HepG2 cells assessed as reduction in cell viability measured after 48 hrs by MTT assay; format: cell-based; conditions: HepG2, 48 h
Mus musculus [13] = assay: Antiinflammatory activity in BALB/c mouse model of carrageenan-induced paw edema assessed as paw thickness at 100 mg/kg, ip pretreated for 1 hr followed by carrageenan challenge and measured after 2 hrs by caliper method (reference value: 3.56 +/- 0.29 millimeter); format: functional; conditions: time 3 hrs
Mus musculus [14] = assay: Antiinflammatory activity in BALB/c mouse model of carrageenan-induced paw edema assessed as paw thickness at 100 mg/kg, ip pretreated for 1 hr followed by carrageenan challenge and measured after 4 hrs by caliper method (reference value: 3.60 +/- 0.12 millimeter); format: functional; conditions: time 5 hrs
Mus musculus [15] = assay: Antiinflammatory activity in BALB/c mouse model of carrageenan-induced paw edema assessed as paw edema at 100 mg/kg, ip pretreated for 1 hr followed by carrageenan challenge and measured after 1 hr by caliper method relative to control; format: functional; conditions: time 2 hrs
in vitro [16] = conditions: Sprague-Dawley, rat, liver microsomes; remark: listed apart in the source
Description: Stability in Sprague-Dawley rat liver microsomes assessed as parent compound remaining at 10 uM measured after 60 mins in absence of NADPH regenerating system by HPLC analysis

Mus musculus [17] = assay: Antiinflammatory activity in BALB/c mouse model of carrageenan-induced paw edema assessed as paw thickness at 100 mg/kg, ip pretreated for 1 hr followed by carrageenan challenge and measured after 3 hrs by caliper method (reference value: 3.61 +/- 0.36 millimeter); format: functional; conditions: time 4 hrs
[18] = molecular target: T2, Bifunctional epoxide hydrolase 2 (Homo sapiens); assay: Mixed-type inhibition of recombinant human sEH assessed as inhibitor dissociation constant using PHOME as substrate measured after 15 mins by fluorescence based Lineweaver-burk plot analysis
[19] = molecular target: T1, Bifunctional epoxide hydrolase 2; assay: Mixed-type inhibition of recombinant human sEH using PHOME as substrate measured after 15 mins by fluorescence based Lineweaver-burk plot analysis

Structure (SMILES): O=C(Nc1ccc(Cl)cc1)Nc1nc2ccc(N(CCN3CCOCC3)C(=O)Nc3ccc(Cl)cc3)cc2s1
- solubility kinetic at 2 h [1]: 30 µg/mL (≈ 51.2 µM)
- IC50 [2]: 0.1 nM
- Ratio IC50 [3]: 67
- inhibition [4]: 90.2%

Structure (SMILES): Nc1nc2ccc(N(CCN3CCOCC3)C(=O)Nc3ccc(F)c(Br)c3)cc2s1
- solubility kinetic at 2 h [1]: 68 µg/mL (≈ 138 µM)
- Activity (Mus musculus [5]): 3.15 mm
- half-life at 1 h, 10 µM (in vitro [6]): 44.7 min
- Activity (Mus musculus [7]): 27.12%
- microsomal CLint at 1 h, 10 µM (in vitro [8]): 31 µL/min/mg
- remaining at 1 h, 10 µM (in vitro [9]): 36.2%
- Activity (Mus musculus [10]): 27.39%
- microsomal CLint at 1 h, 10 µM (in vitro [11]): 55.8 µL/min/mg
- Activity (Mus musculus [12]): 31.49%
- IC50 (HepG2): > 25000 nM
- Activity (Mus musculus [13]): 3.16 mm
- inhibition [4]: 90.5%
- Activity (Mus musculus [14]): 3.06 mm
- Activity (Mus musculus [15]): 30.86%
- remaining at 1 h, 10 µM (in vitro [16]): 85%
- Activity (Mus musculus [17]): 3.06 mm

Structure (SMILES): O=C(Cc1ccccc1)Nc1nc2ccc(N(CCN3CCOCC3)C(=O)Nc3ccc(Cl)cc3)cc2s1
- solubility kinetic at 2 h [1]: 61 µg/mL (≈ 111 µM)
- Activity (Mus musculus [5]): 3.33 mm
- IC50 [2]: 0.082 nM
- half-life at 1 h, 10 µM (in vitro [6]): 1.7 min
- Activity (Mus musculus [7]): 20.32%
- microsomal CLint at 1 h, 10 µM (in vitro [8]): 820 µL/min/mg
- Kdiss [18]: 23.1 nM
- remaining at 1 h, 10 µM (in vitro [9]): 0%
- Activity (Mus musculus [10]): 16.48%
- microsomal CLint at 1 h, 10 µM (in vitro [11]): 1480 µL/min/mg
- Activity (Mus musculus [12]): 17.58%
- Ki [19]: 4.77 nM
- IC50 (HepG2): > 25000 nM
- Activity (Mus musculus [13]): 3.22 mm
- inhibition [4]: 84.7%
- Activity (Mus musculus [14]): 3.3 mm
- Activity (Mus musculus [15]): 21.56%
- remaining at 1 h, 10 µM (in vitro [16]): 116%
- Activity (Mus musculus [17]): 3.19 mm

Structure (SMILES): Nc1nc2ccc(N(CCN3CCOCC3)C(=O)Nc3ccc(Cl)cc3)cc2s1
- solubility kinetic at 2 h [1]: 39 µg/mL (≈ 90.3 µM)
- Activity (Mus musculus [5]): 3.11 mm
- IC50 [2]: 2.8 nM
- half-life at 1 h, 10 µM (in vitro [6]): 34.7 min
- Activity (Mus musculus [7]): 23.39%
- microsomal CLint at 1 h, 10 µM (in vitro [8]): 40 µL/min/mg
- remaining at 1 h, 10 µM (in vitro [9]): 30.1%
- Activity (Mus musculus [10]): 21.64%
- microsomal CLint at 1 h, 10 µM (in vitro [11]): 71.9 µL/min/mg
- Activity (Mus musculus [12]): 19.06%
- IC50 (HepG2): > 25000 nM
- Activity (Mus musculus [13]): 3.06 mm
- inhibition [4]: 89.1%
- Activity (Mus musculus [14]): 3.17 mm
- Activity (Mus musculus [15]): 20.99%
- remaining at 1 h, 10 µM (in vitro [16]): 99.5%
- Activity (Mus musculus [17]): 3.13 mm
